Measured values: patent US20260092071A1, “COMPOUNDS AND COMPOSITIONS AS SMARCA2/4 DEGRADERS AND USES THEREOF” (REGENTS OF THE UNIVERSITY OF MICHIGAN, priority 2022, published 2026)

How the values were obtained:
SMARCA2 = SMARCA2 (Homo sapiens, UniProt P51531); experiment: HiBiT assay for protein degradation, Hela SMARCA2-HiBiT cells (A series); type: cell-based; design: Hela cells were genetically modified via CRISPR/Cas9 to fuse HiBiT to the carboxy terminus of SMARCA2; host or cells: HeLa (CRISPR/Cas9 HiBiT knock-in); conditions: Hela SMARCA2-HiBiT cells, 24 hours treatment; for DC50: read-out: SMARC A2 Hela HiBit DC50; for Dmax: read-out: SMARC A2 Hela HiBit Dmax (%);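 on SMARC A2 Hela HiBit Dmax (%): 24 h compound treatment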
Chain of SMARCA2 (P51531 whole entry, the tested form may be a part): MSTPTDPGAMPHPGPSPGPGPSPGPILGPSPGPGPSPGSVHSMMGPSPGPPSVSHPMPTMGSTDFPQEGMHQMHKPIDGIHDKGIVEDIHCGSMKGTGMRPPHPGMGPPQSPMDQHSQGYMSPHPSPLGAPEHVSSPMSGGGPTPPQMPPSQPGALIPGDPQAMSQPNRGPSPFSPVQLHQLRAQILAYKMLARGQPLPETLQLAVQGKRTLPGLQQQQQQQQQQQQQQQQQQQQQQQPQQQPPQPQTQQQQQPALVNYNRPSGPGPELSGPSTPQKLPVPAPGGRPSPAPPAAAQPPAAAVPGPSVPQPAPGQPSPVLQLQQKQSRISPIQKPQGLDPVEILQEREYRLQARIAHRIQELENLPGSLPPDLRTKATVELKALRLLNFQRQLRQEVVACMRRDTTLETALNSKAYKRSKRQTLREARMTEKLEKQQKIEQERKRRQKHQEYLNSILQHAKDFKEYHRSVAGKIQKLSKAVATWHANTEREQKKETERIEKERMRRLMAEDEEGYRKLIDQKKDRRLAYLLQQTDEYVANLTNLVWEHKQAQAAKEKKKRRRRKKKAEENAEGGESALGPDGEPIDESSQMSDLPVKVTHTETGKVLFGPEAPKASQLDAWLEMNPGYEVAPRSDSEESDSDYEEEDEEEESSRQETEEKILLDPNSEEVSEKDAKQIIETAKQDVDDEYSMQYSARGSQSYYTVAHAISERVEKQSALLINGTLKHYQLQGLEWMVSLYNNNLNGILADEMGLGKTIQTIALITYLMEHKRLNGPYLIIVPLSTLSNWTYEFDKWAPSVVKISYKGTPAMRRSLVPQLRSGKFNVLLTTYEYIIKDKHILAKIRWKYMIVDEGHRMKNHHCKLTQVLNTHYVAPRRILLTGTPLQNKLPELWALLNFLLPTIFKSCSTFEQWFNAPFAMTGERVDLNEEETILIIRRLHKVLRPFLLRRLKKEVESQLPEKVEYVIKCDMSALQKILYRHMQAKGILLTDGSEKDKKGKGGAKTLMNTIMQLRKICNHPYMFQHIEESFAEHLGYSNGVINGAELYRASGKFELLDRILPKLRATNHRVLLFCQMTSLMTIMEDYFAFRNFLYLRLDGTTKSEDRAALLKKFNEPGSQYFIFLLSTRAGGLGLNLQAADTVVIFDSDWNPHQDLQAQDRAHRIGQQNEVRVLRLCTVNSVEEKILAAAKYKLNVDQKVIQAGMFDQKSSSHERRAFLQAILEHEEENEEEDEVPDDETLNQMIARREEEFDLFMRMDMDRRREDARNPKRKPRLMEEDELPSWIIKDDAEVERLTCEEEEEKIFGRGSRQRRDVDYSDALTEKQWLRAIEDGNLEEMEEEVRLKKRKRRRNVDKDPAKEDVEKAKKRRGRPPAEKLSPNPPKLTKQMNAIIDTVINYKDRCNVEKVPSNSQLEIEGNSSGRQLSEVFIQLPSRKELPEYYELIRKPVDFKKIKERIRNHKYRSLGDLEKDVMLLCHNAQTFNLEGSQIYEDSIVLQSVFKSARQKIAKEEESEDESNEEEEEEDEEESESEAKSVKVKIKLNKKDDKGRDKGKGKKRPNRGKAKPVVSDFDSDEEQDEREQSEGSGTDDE
Procedure, shortened: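 HeLa cells engineered by CRISPR/Cas9 to carry a HiBiT tag fused to the C-terminus of SMARCA2 (Promega CS302365) were grown in DMEM supplemented with FBS and penicillin-streptomycin. After treatment, remaining SMARCA2 protein was quantified with the Nano-Glo® HiBiT Lytic Detection Assay (Promega N3050), and curves were fitted in GraphPad Prism.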

SMARCA4 = SMARCA4 (Homo sapiens, UniProt P51532); experiment: HiBiT assay for protein degradation, Hela SMARCA4-HiBiT cells (A series); type: cell-based; design: fuse HiBiT to the carboxy terminus of SMARCA2 (Promega CS302365) or SMARCA4 (Promega CS3023225); host or cells: HeLa (CRISPR/Cas9 HiBiT knock-in); conditions: Hela SMARCA4-HiBiT cells, 24 hours treatment; for DC50: read-out: SMARC A4 Hela HiBit DC50; for Dmax: read-out: SMARC A4 Hela HiBit Dmax
Chain of SMARCA4 (P51532 whole entry, the tested form may be a part): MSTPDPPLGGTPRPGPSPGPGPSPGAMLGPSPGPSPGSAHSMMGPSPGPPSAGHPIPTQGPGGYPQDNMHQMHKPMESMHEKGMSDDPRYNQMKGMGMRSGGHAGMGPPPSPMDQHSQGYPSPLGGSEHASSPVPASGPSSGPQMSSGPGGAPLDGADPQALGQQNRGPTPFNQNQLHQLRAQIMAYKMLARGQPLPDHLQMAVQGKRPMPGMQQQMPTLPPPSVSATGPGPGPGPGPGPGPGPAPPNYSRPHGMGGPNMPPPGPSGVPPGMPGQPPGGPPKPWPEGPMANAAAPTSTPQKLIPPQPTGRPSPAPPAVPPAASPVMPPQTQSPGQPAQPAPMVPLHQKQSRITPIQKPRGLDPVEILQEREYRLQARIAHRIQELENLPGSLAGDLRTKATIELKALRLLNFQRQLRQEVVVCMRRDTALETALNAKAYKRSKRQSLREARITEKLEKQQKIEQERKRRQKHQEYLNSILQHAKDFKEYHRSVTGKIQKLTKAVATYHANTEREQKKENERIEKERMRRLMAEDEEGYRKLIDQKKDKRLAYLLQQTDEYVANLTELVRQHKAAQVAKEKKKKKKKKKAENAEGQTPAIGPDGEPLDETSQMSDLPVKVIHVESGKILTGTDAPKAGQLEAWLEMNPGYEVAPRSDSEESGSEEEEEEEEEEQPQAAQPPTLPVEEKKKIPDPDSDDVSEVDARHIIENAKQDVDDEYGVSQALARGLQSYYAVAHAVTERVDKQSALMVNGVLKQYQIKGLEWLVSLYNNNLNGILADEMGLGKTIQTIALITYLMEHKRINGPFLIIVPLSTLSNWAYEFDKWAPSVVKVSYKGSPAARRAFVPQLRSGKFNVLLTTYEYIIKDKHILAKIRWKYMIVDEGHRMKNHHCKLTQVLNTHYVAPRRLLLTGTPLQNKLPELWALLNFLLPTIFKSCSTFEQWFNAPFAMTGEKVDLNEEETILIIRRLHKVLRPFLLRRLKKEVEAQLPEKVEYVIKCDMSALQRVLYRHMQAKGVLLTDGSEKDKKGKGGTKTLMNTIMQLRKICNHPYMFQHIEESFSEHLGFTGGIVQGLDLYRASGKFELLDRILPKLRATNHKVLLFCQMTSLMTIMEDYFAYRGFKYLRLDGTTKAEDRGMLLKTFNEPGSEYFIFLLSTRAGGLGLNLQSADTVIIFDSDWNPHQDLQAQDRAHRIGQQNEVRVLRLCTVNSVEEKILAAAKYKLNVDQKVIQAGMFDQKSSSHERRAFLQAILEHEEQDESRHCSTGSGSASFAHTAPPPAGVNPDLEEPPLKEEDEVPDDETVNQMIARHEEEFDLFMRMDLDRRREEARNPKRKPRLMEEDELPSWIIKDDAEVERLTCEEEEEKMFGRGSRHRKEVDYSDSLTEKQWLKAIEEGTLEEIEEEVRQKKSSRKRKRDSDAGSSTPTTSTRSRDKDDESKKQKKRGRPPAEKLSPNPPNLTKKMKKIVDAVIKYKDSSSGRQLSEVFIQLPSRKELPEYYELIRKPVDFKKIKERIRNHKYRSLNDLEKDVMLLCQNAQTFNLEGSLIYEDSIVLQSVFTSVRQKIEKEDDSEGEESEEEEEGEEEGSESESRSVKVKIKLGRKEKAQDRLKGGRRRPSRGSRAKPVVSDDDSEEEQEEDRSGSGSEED
Procedure, shortened: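 HeLa cells engineered by CRISPR/Cas9 to carry a HiBiT tag fused to the C-terminus of SMARCA4 (Promega CS3023225) were grown in DMEM supplemented with FBS and penicillin-streptomycin. After compound exposure, remaining SMARCA4 protein was quantified using the Nano-Glo® HiBiT Lytic Detection Assay (Promega N3050), and curves were fitted in GraphPad Prism.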

SMILES	DC50 (SMARCA2) [nM]	Dmax (SMARCA2) [%]	DC50 (SMARCA4) [nM]	Dmax (SMARCA4) [%]
O=C(O)c1ncsc1-c1ccc([C@H](CN2CCOCC2)NC(=O)[C@@H]2C[C@@H](O)CN2C(=O)[C@H](C2CCOCC2)n2cc([C@H]3CC[C@H](CN4CCC(c5ccc6c(c5)-n5c(nc(=O)c7c(Cl)cccc75)C65CCCCC5)CC4)CC3)nn2)cc1 [Compound A134, 5-(4-((R)-1-((2S,4R)-1-((S)-2-(4-((1r,4S)-4-((4-(4′-chloro-5′-oxo-5′H-spiro[cyclohexane-1,7′-indolo[1,2-a]quinazolin]-10′-yl)piperidin-1-yl)methyl)cyclohexyl)-1H-1,2,3-triazol-1-yl)-2-(tetrahydro-2H-pyran-4-yl)acetyl)-4-hydroxypyrrolidine-2-carboxamido)-2-morpholinoethyl)phenyl)thiazole-4-carboxylic acid]	100 to 1000	70 to 90	> 1000	< 50
Cc1ncsc1-c1ccc([C@@H](NC(=O)[C@@H]2C[C@@H](O)CN2C(=O)[C@@H](n2cc(C3CC3)nn2)C(C)(C)C)C(=O)N2CCC(c3ccc4c(c3)-n3c(nc(=O)c5c(Br)cccc53)C43CCCCC3)CC2)cc1 [Compound A135, (2S,4R)—N—((R)-2-(4-(4′-bromo-5′-oxo-5′H-spiro[cyclohexane-1,7′-indolo[1,2-a]quinazolin]-10′-yl)piperidin-1-yl)-1-(4-(4-methylthiazol-5-yl)phenyl)-2-oxoethyl)-1-((S)-2-(4-cyclopropyl-1H-1,2,3-triazol-1-yl)-3,3-dimethylbutanoyl)-4-hydroxypyrrolidine-2-carboxamide]	< 10	> 90	< 10	> 90
Cc1ncsc1-c1ccc([C@@H](NC(=O)[C@@H]2C[C@@H](O)CN2C(=O)[C@@H](n2cc(C3CC3)nn2)C(C)(C)C)C(=O)N2CCC3(CCC(CN4CCC(c5ccc6c(c5)-n5c(nc(=O)c7c(Br)cccc75)C65CCCCC5)CC4)CC3)CC2)cc1 [Compound A137, (2S,4R)—N—((R)-2-(9-((4-(4′-bromo-5′-oxo-5′H-spiro[cyclohexane-1,7′-indolo[1,2-a]quinazolin]-10′-yl)piperidin-1-yl)methyl)-3-azaspiro[5.5]undecan-3-yl)-1-(4-(4-methylthiazol-5-yl)phenyl)-2-oxoethyl)-1-((S)-2-(4-cyclopropyl-1H-1,2,3-triazol-1-yl)-3,3-dimethylbutanoyl)-4-hydroxypyrrolidine-2-carboxamide]	< 10	> 90	< 10	70 to 90
Cc1ncsc1-c1ccc([C@@H](NC(=O)[C@@H]2C[C@@H](O)CN2C(=O)[C@@H](n2cc(C3CC3)nn2)C(C)(C)C)C(=O)N2CCC3(CCC(N4CCC(c5ccc6c(c5)-n5c(nc(=O)c7c(Br)cccc75)C65CCCCC5)CC4)CC3)CC2)cc1 [Compound A139, (2S,4R)—N—((R)-2-(9-(4-(4′-bromo-5′-oxo-5′H-spiro[cyclohexane-1,7′-indolo[1,2-a]quinazolin]-10′-yl)piperidin-1-yl)-3-azaspiro[5.5]undecan-3-yl)-1-(4-(4-methylthiazol-5-yl)phenyl)-2-oxoethyl)-1-((S)-2-(4-cyclopropyl-1H-1,2,3-triazol-1-yl)-3,3-dimethylbutanoyl)-4-hydroxypyrrolidine-2-carboxamide]	< 10	> 90	< 10	70 to 90
Cc1ncsc1-c1ccc([C@H](CC(=O)N2CCC3(CCC(CN4CCC(c5ccc6c(c5)-n5c(nc(=O)c7c(Br)cccc75)C65CCCCC5)CC4)CC3)CC2)NC(=O)[C@@H]2C[C@@H](O)CN2C(=O)[C@@H](n2cc(C3CC3)nn2)C(C)(C)C)cc1 [Compound A142, (2S,4R)—N—((S)-3-(9-((4-(4′-bromo-5′-oxo-5′H-spiro[cyclohexane-1,7′-indolo[1,2-a]quinazolin]-10′-yl)piperidin-1-yl)methyl)-3-azaspiro[5.5]undecan-3-yl)-1-(4-(4-methylthiazol-5-yl)phenyl)-3-oxopropyl)-1-((S)-2-(4-cyclopropyl-1H-1,2,3-triazol-1-yl)-3,3-dimethylbutanoyl)-4-hydroxypyrrolidine-2-carboxamide]	< 10	> 90	< 10	70 to 90

Next, values leading:

DC50 (SMARCA2) [nM]	Dmax (SMARCA2) [%]	DC50 (SMARCA4) [nM]	Dmax (SMARCA4) [%]	SMILES
< 10	> 90	< 10	> 90	Cc1ncsc1-c1ccc([C@@H](NC(=O)[C@@H]2C[C@@H](O)CN2C(=O)[C@@H](n2cc(C3CC3)nn2)C(C)(C)C)C(=O)N2CCC(CN3CCC(c4ccc5c(c4)-n4c(nc(=O)c6c(Br)cccc64)C54CCCCC4)CC3)CC2)cc1 [Compound A136, (2S,4R)—N—((R)-2-(4-((4-(4′-bromo-5′-oxo-5′H-spiro[cyclohexane-1,7′-indolo[1,2-a]quinazolin]-10′-yl)piperidin-1-yl)methyl)piperidin-1-yl)-1-(4-(4-methylthiazol-5-yl)phenyl)-2-oxoethyl)-1-((S)-2-(4-cyclopropyl-1H-1,2,3-triazol-1-yl)-3,3-dimethylbutanoyl)-4-hydroxypyrrolidine-2-carboxamide]
< 10	> 90	< 10	> 90	Cc1ncsc1-c1ccc([C@@H](NC(=O)[C@@H]2C[C@@H](O)CN2C(=O)[C@@H](n2cc(C3CC3)nn2)C(C)(C)C)C(=O)N2CCC(N3CCC(c4ccc5c(c4)-n4c(nc(=O)c6c(Br)cccc64)C54CCCCC4)CC3)CC2)cc1 [Compound A138, (2S,4R)—N—((R)-2-(4-(4′-bromo-5′-oxo-5′H-spiro[cyclohexane-1,7′-indolo[1,2-a]quinazolin]-10′-yl)-[1,4′-bipiperidin]-1′-yl)-1-(4-(4-methylthiazol-5-yl)phenyl)-2-oxoethyl)-1-((S)-2-(4-cyclopropyl-1H-1,2,3-triazol-1-yl)-3,3-dimethylbutanoyl)-4-hydroxypyrrolidine-2-carboxamide]
10 to 100	70 to 90	> 1000	< 50	Cc1ncsc1-c1ccc([C@H](CC(=O)N2CCC(c3ccc4c(c3)-n3c(nc(=O)c5c(Cl)cccc53)C43CCCCC3)CC2)NC(=O)[C@@H]2C[C@@H](O)CN2C(=O)[C@@H](n2cc(C3CC3)nn2)C(C)(C)C)cc1 [Compound A140, (2S,4R)—N—((S)-3-(4-(4′-chloro-5′-oxo-5′H-spiro[cyclohexane-1,7′-indolo[1,2-a]quinazolin]-10′-yl)piperidin-1-yl)-1-(4-(4-methylthiazol-5-yl)phenyl)-3-oxopropyl)-1-((S)-2-(4-cyclopropyl-1H-1,2,3-triazol-1-yl)-3,3-dimethylbutanoyl)-4-hydroxypyrrolidine-2-carboxamide]
< 10	> 90	< 10	> 90	Cc1ncsc1-c1ccc([C@H](CC(=O)N2CCC(CN3CCC(c4ccc5c(c4)-n4c(nc(=O)c6c(Br)cccc64)C54CCCCC4)CC3)CC2)NC(=O)[C@@H]2C[C@@H](O)CN2C(=O)[C@@H](n2cc(C3CC3)nn2)C(C)(C)C)cc1 [Compound A141, (2S,4R)—N—((S)-3-(4-((4-(4′-bromo-5′-oxo-5′H-spiro[cyclohexane-1,7′-indolo[1,2-a]quinazolin]-10′-yl)piperidin-1-yl)methyl)piperidin-1-yl)-1-(4-(4-methylthiazol-5-yl)phenyl)-3-oxopropyl)-1-((S)-2-(4-cyclopropyl-1H-1,2,3-triazol-1-yl)-3,3-dimethylbutanoyl)-4-hydroxypyrrolidine-2-carboxamide]
10 to 100	70 to 90	100 to 1000	50 to 69	Cc1ncsc1-c1ccc([C@H](CC(=O)N2CCC(N3CCC(c4ccc5c(c4)-n4c(nc(=O)c6c(Cl)cccc64)C54CCCCC4)CC3)CC2)NC(=O)[C@@H]2C[C@@H](O)CN2C(=O)[C@@H](n2cc(C3CC3)nn2)C(C)(C)C)cc1 [Compound A143, (2S,4R)—N—((S)-3-(4-(4′-chloro-5′-oxo-5′H-spiro[cyclohexane-1,7′-indolo[1,2-a]quinazolin]-10′-yl)-[1,4′-bipiperidin]-1′-yl)-1-(4-(4-methylthiazol-5-yl)phenyl)-3-oxopropyl)-1-((S)-2-(4-cyclopropyl-1H-1,2,3-triazol-1-yl)-3,3-dimethylbutanoyl)-4-hydroxypyrrolidine-2-carboxamide]
< 10	> 90	10 to 100	70 to 90	Cc1ncsc1-c1ccc([C@H](CC(=O)N2CCC3(CCC(N4CCC(c5ccc6c(c5)-n5c(nc(=O)c7c(Br)cccc75)C65CCCCC5)CC4)CC3)CC2)NC(=O)[C@@H]2C[C@@H](O)CN2C(=O)[C@@H](n2cc(C3CC3)nn2)C(C)(C)C)cc1 [Compound A144, (2S,4R)—N—((S)-3-(9-(4-(4′-bromo-5′-oxo-5′H-spiro[cyclohexane-1,7′-indolo[1,2-a]quinazolin]-10′-yl)piperidin-1-yl)-3-azaspiro[5.5]undecan-3-yl)-1-(4-(4-methylthiazol-5-yl)phenyl)-3-oxopropyl)-1-((S)-2-(4-cyclopropyl-1H-1,2,3-triazol-1-yl)-3,3-dimethylbutanoyl)-4-hydroxypyrrolidine-2-carboxamide]
